In patent publication US9511134B2, “Inducing immune responses to influenza virus using polypeptide and nucleic acid compositions” (priority 2006, dated 2016):
Like-named read-outs stand apart in the source and are kept apart here. Where no end group is shown, it is not given here.

Assays:
Assay in all cases: biochemical
Assay type in all cases: binding
DRB1*0301 = target: T1, DRB1*0301 (Homo sapiens, UniProt P01903+P01911, A100K/A102G/A103R/A169T/F55Y/I96L/K41T/L162R/M171V/P40S/Q125H/Q178H/Q39Y/R42S/S66N/T106N/T262R/W38E/Y61H)
T1 construct: made in house; host or cells: EBV-transformed homozygous human B cell lines, transfected fibroblasts or single-allele 721.221 transfectants
T1 sequence (P01903 26-254, other chains not shown): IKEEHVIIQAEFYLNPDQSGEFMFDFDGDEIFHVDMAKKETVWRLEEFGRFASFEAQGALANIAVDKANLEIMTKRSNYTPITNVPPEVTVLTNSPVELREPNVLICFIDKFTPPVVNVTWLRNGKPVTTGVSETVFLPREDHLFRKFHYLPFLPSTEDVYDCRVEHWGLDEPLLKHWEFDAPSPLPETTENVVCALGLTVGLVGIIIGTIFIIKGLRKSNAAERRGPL

DRB1*0401 = target: T2, DRB1*0401 (Homo sapiens, UniProt P01903+P01911, A100K/A169T/F76Y/I96L/K127E/L162R/M171V/N62H/P40V/Q125Y/R42H/S133A/S149N/S66Y/V115G/V209L/W38E); conditions: read-out: IC50 nM to purified HLA DRB1*0401
T2 construct: made in house; host or cells: EBV-transformed homozygous human B cell lines, transfected fibroblasts or single-allele 721.221 transfectants

DRB1*0405 = DRB1*0405 (Homo sapiens, UniProt P01903+P01911, A100R/A169T/D86S/F76Y/I96L/K127E/L162R/M171V/N62H/P40V/Q125Y/R42H/S133A/S149N/S66Y/V115G/V209L/W38E); conditions: read-out: IC50 nM to purified HLA DRB1*0405
DRB1*0404 = DRB1*0404 (Homo sapiens, UniProt P01903+P01911, A100R/A169T/F76Y/I96L/K127E/L162R/M171V/N62H/P40V/Q125Y/R42H/S133A/S149N/S66Y/V209L/W38E); conditions: IC50 nM to purified HLA DRB1*0404
DRB1*0101 = target: T3, DRB1*0101 (Homo sapiens, UniProt P01903+P01911, A100R/D57E/F55L/F60I/F76Y/I96L/L162R/M171V/P40L/Q125E/R42F/V115G/Y59C); conditions: IC50 nM to purified HLA DRB1*0101
T3 construct: made in house; host or cells: EBV-transformed homozygous human B cell lines, transfected fibroblasts or single-allele 721.221 transfectants

DRB1*1302 = DRB1*1302 (Homo sapiens, UniProt P01903+P01911, A100E/A169T/K41T/L162R/M171V/P40S/Q125H/Q178H/Q39Y/Q99D/R42S/S66N/T262R/V115G/W38E/Y61H); conditions: read-out: IC50 nM to purified HLA DRB1*1302
DRB1*1302, sequence (P01903 26-254 limits assumed, other chains not shown): as the sequence (P01903 26-254, other chains not shown) above

DRB5*0101 = target: T4, DRB5*0101 (Homo sapiens, UniProt P01903+Q30154)
T4 construct: made in house; host or cells: EBV-transformed homozygous human B cell lines, transfected fibroblasts or single-allele 721.221 transfectants

DRB1*1101 = DRB1*1101 (Homo sapiens, UniProt P01903+P01911, A100R/A169T/A87E/I96F/K41T/L162R/M171V/P40S/Q125H/Q178H/Q39Y/Q99D/R42S/S66Y/T262R/V115G/W38E); conditions: read-out: IC50 nM to purified HLA DRB1*1101
DRB1*1101, sequence (P01903 26-254 limits assumed, other chains not shown): as the sequence (P01903 26-254, other chains not shown) above

DRB1*1501 = target: T5, DRB1*1501 (Homo sapiens, UniProt P01903+P01911); conditions: read-out: IC50 nM to purified HLA DRB1*1501
T5 construct: made in house; host or cells: EBV-transformed homozygous human B cell lines, transfected fibroblasts or single-allele 721.221 transfectants

DRB4*0101 = target: T6, DRB4*0101 (Homo sapiens, UniProt P01903+P13762, G164S); conditions: IC50 nM to purified HLA DRB4*0101
T6 construct: made in house; host or cells: EBV-transformed homozygous human B cell lines, transfected fibroblasts or single-allele 721.221 transfectants

## CC[C@H](C)[C@H](NC(=O)[C@H](CCC(=O)O)NC(=O)[C@H](CCC(N)=O)NC(=O)[C@H](CCC(=O)O)NC(=O)[C@@H](NC(=O)[C@H](CCC(=O)O)NC(=O)[C@H](CC(C)C)NC(=O)[C@H](CC(C)C)NC(=O)[C@H](CC(C)C)NC(=O)[C@@H](N)CCC(N)=O)C(C)C)C(=O)N[C@@H](CCCNC(=N)N)C(=O)N[C@H](C(=O)N[C@@H](Cc1ccccc1)C(=O)N[C@@H](CO)C(=O)N[C@@H](Cc1ccccc1)C(=O)O)[C@@H](C)O [Flu.NS2.180]
DRB1*0301
  IC50: 792 nM
DRB1*0401
  IC50: 13900 nM
DRB1*0405
  IC50: 5140 nM
DRB1*0404
  IC50: 1600 nM
DRB1*0101
  IC50: 11900 nM

## CC[C@H](C)[C@H](NC(=O)[C@H](CCSC)NC(=O)[C@@H]1CCCN1C(=O)[C@H](CC(N)=O)NC(=O)[C@@H](N)Cc1ccccc1)C(=O)N[C@H](C(=O)N[C@@H](CCC(=O)O)C(=O)N[C@@H](CC(C)C)C(=O)N[C@@H](C)C(=O)N[C@@H](CCC(=O)O)C(=O)N[C@@H](CCCCN)C(=O)N[C@H](C(=O)N[C@@H](CCSC)C(=O)N[C@@H](CCCCN)C(=O)N[C@@H](CCC(=O)O)C(=O)O)[C@@H](C)O)C(C)C [Flu.PA.12]
DRB1*0301
  IC50: 744 nM
DRB1*0401
  IC50: 29 nM
DRB1*1302
  IC50: 1250 nM
DRB1*0405
  IC50: 1240 nM
DRB1*0404
  IC50: 610 nM
DRB1*0101
  IC50: 48 nM

## CC[C@H](C)[C@H](NC(=O)[C@H](CCC(=O)O)NC(=O)[C@H](Cc1ccccc1)NC(=O)[C@@H](N)CCCNC(=N)N)C(=O)N[C@H](C(=O)NCC(=O)N[C@H](C(=O)N[C@@H](CCSC)C(=O)N[C@@H](CCCNC(=N)N)C(=O)N[C@@H](CCCNC(=N)N)C(=O)N[C@@H](CC(C)C)C(=O)N[C@@H](C)C(=O)N[C@@H](CC(=O)O)C(=O)N[C@@H](CCC(N)=O)C(=O)N[C@@H](CO)C(=O)O)[C@@H](C)O)[C@@H](C)O [Flu.PA.207]
DRB5*0101
  IC50: 9.2 nM
DRB1*1101
  IC50: 19 nM

## CC(C)[C@H](NC(=O)[C@H](CCC(=O)O)NC(=O)[C@H](C)NC(=O)[C@@H](NC(=O)[C@H](Cc1ccccc1)NC(=O)[C@H](Cc1ccc(O)cc1)NC(=O)[C@H](CC(N)=O)NC(=O)[C@@H](N)CCCNC(=N)N)[C@@H](C)O)C(=O)N[C@@H](CO)C(=O)N[C@@H](Cc1c[nH]cn1)C(=O)N[C@@H](CS)C(=O)N[C@@H](CCCNC(=N)N)C(=O)N[C@@H](C)C(=O)N[C@H](C(=O)N[C@@H](CCC(=O)O)C(=O)O)[C@@H](C)O [Flu.PA.446]
DRB1*0301
  IC50: 883 nM
DRB1*0401
  IC50: 45 nM
DRB1*0405
  IC50: 5720 nM
DRB1*0404
  IC50: 7600 nM
DRB1*0101
  IC50: 627 nM

## CC[C@H](C)[C@H](NC(=O)[C@H](CCSC)NC(=O)[C@H](CO)NC(=O)[C@@H](N)CCC(=O)O)C(=O)N[C@@H](CCC(=O)O)C(=O)N[C@@H](C)C(=O)N[C@@H](CCC(=O)O)C(=O)N[C@@H](CO)C(=O)N[C@@H](CO)C(=O)N[C@H](C(=O)N[C@@H](CCCCN)C(=O)N[C@@H](CCC(=O)O)C(=O)N[C@@H](CCCCN)C(=O)N[C@@H](CC(=O)O)C(=O)N[C@@H](CCSC)C(=O)O)C(C)C [Flu.PA.596]
DRB5*0101
  IC50: 600 nM
DRB1*1101
  IC50: 12000 nM
DRB1*0405
  IC50: 72 nM
DRB1*0404
  IC50: 121 nM

## CC[C@H](C)[C@H](NC(=O)[C@H](CC(C)C)NC(=O)[C@H](CS)NC(=O)[C@H](CCC(=O)O)NC(=O)[C@@H](N)CCC(=O)O)C(=O)N[C@@H](CC(N)=O)C(=O)N[C@@H](CC(=O)O)C(=O)N1CCC[C@H]1C(=O)N[C@@H](Cc1c[nH]c2ccccc12)C(=O)N[C@H](C(=O)N[C@@H](CC(C)C)C(=O)N[C@@H](CC(C)C)C(=O)N[C@@H](CC(N)=O)C(=O)N[C@@H](C)C(=O)N[C@@H](CO)C(=O)O)C(C)C [Flu.PA.694]
DRB1*0301
  IC50: 618 nM
DRB1*0405
  IC50: 15000 nM
DRB1*0404
  IC50: 183 nM
DRB1*0101
  IC50: 34 nM

## CC[C@H](C)[C@H](NC(=O)[C@H](CC(N)=O)NC(=O)[C@H](Cc1ccc(O)cc1)NC(=O)[C@H](CC(C)C)NC(=O)[C@H](CC(N)=O)NC(=O)[C@@H]1CCCN1)C(=O)N[C@@H](CCCNC(=N)N)C(=O)N[C@@H](CC(N)=O)C(=O)N[C@@H](CC(C)C)C(=O)N[C@@H](Cc1c[nH]cn1)C(=O)N[C@H](C(=O)N1CCC[C@H]1C(=O)N[C@@H](CCC(=O)O)C(=O)N[C@H](C(=O)N[C@@H](CS)C(=O)O)C(C)C)[C@@H](C)CC [Flu.PB1.599]
DRB5*0101; read-out: IC50 nM to purified HLA DRB5*0101
  IC50: 2310 nM

## CC[C@H](C)[C@H](NC(=O)CNC(=O)[C@H](CCCNC(=N)N)NC(=O)[C@@H](N)CCC(N)=O)C(=O)N[C@@H](CC(C)C)C(=O)N[C@@H](CCC(=O)O)C(=O)N[C@@H](CC(=O)O)C(=O)N[C@@H](CCC(=O)O)C(=O)N[C@@H](CCC(N)=O)C(=O)N[C@@H](CCSC)C(=O)N[C@@H](Cc1ccc(O)cc1)C(=O)N[C@@H](CCC(N)=O)C(=O)N[C@@H](CCCCN)C(=O)N[C@@H](CS)C(=O)N[C@@H](CS)C(=O)O [Flu.PB1.682]
DRB1*0301
  IC50: 34 nM
DRB1*0401
  IC50: 2560 nM
DRB1*0405
  IC50: 700 nM
DRB1*0404
  IC50: 3270 nM
DRB1*0101
  IC50: 433 nM

## CC[C@H](C)[C@H](NC(=O)CNC(=O)[C@@H](N)CCCNC(=N)N)C(=O)N[C@@H](CC(C)C)C(=O)N[C@@H](CCC(=O)O)C(=O)N[C@@H](CC(=O)O)C(=O)N[C@@H](CCC(=O)O)C(=O)N[C@@H](CCC(N)=O)C(=O)N[C@@H](CCSC)C(=O)N[C@@H](Cc1ccc(O)cc1)C(=O)N[C@@H](CCC(N)=O)C(=O)N[C@@H](CCCCN)C(=O)N[C@@H](CS)C(=O)N[C@@H](CS)C(=O)N[C@@H](CC(N)=O)C(=O)O [Flu.PB1.683]
DRB1*0301
  IC50: 43 nM
DRB1*0401
  IC50: 5740 nM
DRB1*1302
  IC50: 18000 nM
DRB1*0405
  IC50: 3280 nM

## CC[C@H](C)[C@H](NC(=O)[C@H](CO)NC(=O)[C@H](CCC(N)=O)NC(=O)[C@H](CCC(=O)O)NC(=O)[C@H](CC(=O)O)NC(=O)[C@H](CCCNC(=N)N)NC(=O)CNC(=O)[C@H](CO)NC(=O)[C@@H](NC(=O)[C@@H](NC(=O)[C@H](CC(C)C)NC(=O)[C@H](CCC(N)=O)NC(=O)[C@@H](NC(=O)[C@@H](N)CC(C)C)[C@@H](C)CC)[C@@H](C)CC)C(C)C)C(=O)N[C@@H](C)C(=O)O [Flu.PB2.384]
DRB1*1501
  IC50: 420 nM
DRB1*0301
  IC50: 53 nM
DRB1*0401
  IC50: 83 nM
DRB4*0101
  IC50: 9.9 nM
DRB1*1302
  IC50: 4680 nM
DRB1*1101
  IC50: 2010 nM
DRB1*0405
  IC50: 460 nM
DRB1*0404
  IC50: 90 nM
DRB1*0101
  IC50: 3230 nM

## CC[C@H](C)[C@H](NC(=O)[C@H](CCSC)NC(=O)[C@H](CS)NC(=O)[C@H](CC(=O)O)NC(=O)[C@H](CCC(=O)O)NC(=O)[C@H](CCC(N)=O)NC(=O)[C@H](CO)NC(=O)[C@H](Cc1ccccc1)NC(=O)[C@@H](NC(=O)[C@H](CCSC)NC(=O)[C@H](C)N)C(C)C)C(=O)N[C@@H](CCCCN)C(=O)N[C@@H](C)C(=O)N[C@H](C(=O)N[C@@H](CCCNC(=N)N)C(=O)O)C(C)C [Flu.PB2.404]
DRB1*0301
  IC50: 718 nM
DRB1*0401
  IC50: 3280 nM
DRB1*1302
  IC50: 9200 nM
DRB1*0405
  IC50: 6780 nM
DRB1*0404
  IC50: 336 nM
DRB1*0101
  IC50: 11000 nM

## CC[C@H](C)[C@H](NC(=O)[C@H](CO)NC(=O)[C@@H](NC(=O)[C@@H](NC(=O)[C@@H](NC(=O)[C@@H](N)CCCNC(=N)N)C(C)C)C(C)C)C(C)C)C(=O)N[C@@H](CC(=O)O)C(=O)N[C@@H](CCCNC(=N)N)C(=O)N[C@@H](Cc1ccccc1)C(=O)N[C@@H](CC(C)C)C(=O)N[C@@H](CCCNC(=N)N)C(=O)N[C@H](C(=O)N[C@@H](CCCNC(=N)N)C(=O)N[C@@H](CC(=O)O)C(=O)N[C@@H](CCC(N)=O)C(=O)O)C(C)C [Flu.PB2.496]
DRB1*0301
  IC50: 67 nM
DRB1*0401
  IC50: 111 nM
DRB1*1302
  IC50: 8.1 nM
DRB1*0405
  IC50: 2050 nM
DRB1*0404
  IC50: 400 nM

## ALQLLFEVEQEIRTF [Flu.NS2.178]
DRB1*0405
  IC50: 8870 nM
DRB1*0404
  IC50: 2150 nM
DRB1*0101
  IC50: 3490 nM

## LILYDKEEIRRIWRQ [Flu.NP.111]
DRB1*0301
  IC50: 22 nM
DRB1*1302
  IC50: 3100 nM
DRB1*0405
  IC50: 7500 nM
DRB1*0404
  IC50: 262 nM
DRB1*0101
  IC50: 7180 nM
